Test results published in paper PMC6272127, “Synthesis, Antiproliferative Activity and Molecular Properties Predictions of Galloyl Derivatives” (Molecules, 2015).
In brackets after ≈: the same amount, converted by molar mass. Like-named read-outs stand apart in the source and are kept apart here.

Legend:
U251 (glioma, CNS) = test: cells; details: for TGI: U251, total growth inhibition, 48 h
Description: The GI50 values (growth inhibitory activity) (Table 1) refer to the drug concentration that produces a 50% reduction of cellular growth compared with the untreated control cells. The TGI (cytostatic activity) and LC50 (cytotoxic activity) values (Table 2) refer to the drug concentration required for total growth inhibition and killing 50% of the cells, respectively.
The synthesized compounds were assessed in the following ten human tumor cell lines from various tissues kindly provide by the National Cancer Institute (Frederick, MD, USA): U251 (glioma, CNS), MCF-7 (breast), NCI-ADR/RES (breast expressing the multiple drug resistance phenotype), 786-0 (renal), NCI-H460 (lung, non-small cells), PC-3 (prostate), OVCAR-3 (ovarian), HT-29 (colon), K-562 (leukemia) and HaCaT (keratinocytes). Stock cultures were grown in media containing 5 mL of RPMI 1640 (Gibco BRL) supplemented with 5% fetal bovine serum. Gentamicin ([…]) was added to the experimental cultures. Cells in 96-well plates (100 µL cells/well) were exposed to sample concentrations in DMSO/RPMI (0.25, 2.5, 25, and 250 µg/mL) at 37 °C and 5% CO2 for 48 h. […] Next, cells were fixed with 50% trichloroacetic acid, and cell proliferation was determined by spectrophotometric quantification (540 nm) of cellular protein content employing the sulforhodamine B assay. Doxorubicin (0.025–25 µg/mL) was used as a positive control. Three measurements were obtained: first at time point zero (T0, at the beginning of incubation) and then 48 h post-incubation for both the compound-free (C) and tested (T) cells. Cell proliferation was determined using the equation 100 × [(T − T0)/C − T0]. A cytostatic effect was observed when T ≥ T0, while a cytocidal effect occurred when T < T0. The experiments were performed in triplicate.

HaCaT (keratinocytes) = test: Anticancer assay in vitro (sulforhodamine B), HaCaT; assay type: cell-based; details: 48 h; for GI50: SRB; for TGI: total growth inhibition
Description: (§1) The experiments were performed in triplicate.

MCF-7 (breast) = test: Anticancer assay in vitro (sulforhodamine B), MCF-7; assay type: cell-based; details: for GI50: MCF-7, 48 h, SRB
Description: as §1

OVCAR-3 (ovarian) = test: Anticancer assay in vitro (sulforhodamine B), OVCAR-3; assay type: cell-based; details: for TGI: OVCAR-3, total growth inhibition, 48 h; for GI50: SRB
Description: as §1

HT-29 (colon) = test: Anticancer assay in vitro (sulforhodamine B), HT-29; assay type: cell-based; details: for TGI: HT-29, total growth inhibition, 48 h; for GI50: SRB
Description: as §1

[1] = system: ten human tumor cell lines; test: Anticancer assay in vitro (sulforhodamine B), statements over the panel of cell lines; assay type: cell-based
Description: as §1

[2] = system: NCI-ADR/RES (breast expressing the multiple drug resistance phenotype); test: cells; assay type: cell-based; details: for GI50: SRB
Description: as §1

[3] = system: NCI-H460 (lung, non-small cells); test: cells; assay type: cell-based; details: for GI50: SRB; for TGI: NCI-H460, total growth inhibition, 48 h
Description: as §1

K-562 (leukemia) = test: cells; assay type: cell-based; details: for GI50: K-562, 48 h, SRB
Description: as §1

PC-3 (prostate) = test: cells; assay type: cell-based; details: for GI50: PC-3, 48 h, SRB; for TGI: PC-3, total growth inhibition
Description: as §1

786-0 (renal) = test: cells; assay type: cell-based; details: for TGI: 786-0, total growth inhibition, 48 h; for CC50 / GI50: 786-0, 48 h; for CC50: read-out: LC50; for GI50: SRB
Description: as §1

[4] = MCF-7, total growth inhibition, 48 h
[5] = Homo sapiens, NCI/ADR-RES, 48 h
[6] = NCI/ADR-RES, total growth inhibition, 48 h
[7] = K-562, total growth inhibition, 48 h

COC(=O)c1cc(O)c(O)c(O)c1 [Compound 2, Methyl gallate]
GI50 (U251 (glioma, CNS); Homo sapiens, U-251, 48 h): 0.16 µM | CC50 (U251 (glioma, CNS); Homo sapiens, U-251, 48 h, read-out: LC50): 29.2 mg/L (≈ 159 µM) | TGI (U251 (glioma, CNS)): 4.10 mg/L (≈ 22.3 µM) | GI50 (HaCaT (keratinocytes); Homo sapiens): 0.26 µM | TGI (HaCaT (keratinocytes)): 16.74 mg/L (≈ 90.9 µM) | GI50 (MCF-7 (breast); Homo sapiens, MCF7): 0.16 µM | TGI (MCF-7 (breast); [4]): 5.12 mg/L | CC50 (OVCAR-3 (ovarian); Homo sapiens, OVCAR-3, 48 h, read-out: LC50): 33.7 mg/L | TGI (OVCAR-3 (ovarian)): 1.59 mg/L (≈ 8.63 µM) | TGI (HT-29 (colon)): 8.52 mg/L (≈ 46.3 µM) | CC50 (HT-29 (colon); Homo sapiens, HT-29, 48 h, read-out: LC50): 30.6 mg/L (≈ 166 µM) | GI50 (HT-29 (colon); Homo sapiens, HT-29, 48 h): 0.49 µM | TGI values over the cell lines tested ([1]; range over all human tumor cell lines): 1.59 to 16.74 µM | CC50 ([2]; Homo sapiens, NCI/ADR-RES, 48 h, read-out: LC50): 30.3 mg/L | GI50 [2, 5]: 0.12 µM | TGI [2, 6]: 3.62 mg/L | CC50 ([3]; Homo sapiens, NCI-H460, 48 h, read-out: LC50): 34.9 mg/L (≈ 190 µM) | GI50 ([3]; Homo sapiens, NCI-H460, 48 h): 0.13 µM | TGI [3]: 7.97 mg/L (≈ 43.3 µM) | GI50 (K-562 (leukemia); Homo sapiens, K562): 0.31 µM | TGI (K-562 (leukemia); [7]): 5.67 mg/L | GI50 (PC-3 (prostate); Homo sapiens): 0.57 µM | TGI (PC-3 (prostate); 48 h): 13.10 mg/L (≈ 71.1 µM) | TGI (786-0 (renal)): 8.62 mg/L (≈ 46.8 µM) | CC50 (786-0 (renal); Homo sapiens): 31.4 mg/L (≈ 170 µM) | GI50 (786-0 (renal); Homo sapiens): 0.65 µM

O=C(N/N=C/c1ccccc1)c1cc(O)c(O)c(O)c1 [Compound 4, N'-(Benzylidene)galloyl hydrazide]
GI50 (U251 (glioma, CNS); Homo sapiens, U-251, 48 h): 7.8 µM | GI50 (HaCaT (keratinocytes); Homo sapiens): 8.29 µM | GI50 (MCF-7 (breast); Homo sapiens, MCF7): 5.55 µM | TGI (MCF-7 (breast); [4]): 23.54 mg/L | GI50 (OVCAR-3 (ovarian); Homo sapiens, OVCAR-3, 48 h): 1.24 µM | TGI (OVCAR-3 (ovarian)): 29.61 mg/L (≈ 109 µM) | GI50 (HT-29 (colon); Homo sapiens, HT-29, 48 h): 7.53 µM | GI50 ([1]; Homo sapiens, bound or range over all (for 4: nine) human tumor cell lines, read-out: GI50 values over the cell lines tested): 1.24 to 9.96 µM | GI50 [2, 5]: 7.16 µM | GI50 ([3]; Homo sapiens, NCI-H460, 48 h): 11.2 µM | GI50 (K-562 (leukemia); Homo sapiens, K562): 9.96 µM | GI50 (PC-3 (prostate); Homo sapiens): 5.07 µM | GI50 (786-0 (renal); Homo sapiens): 9.06 µM

O=C(N/N=C/c1ccc([N+](=O)[O-])cc1)c1cc(O)c(O)c(O)c1 [Compound 6, N'-(4-Nitrobenzylidene)galloyl hydrazide]
GI50 (U251 (glioma, CNS); Homo sapiens, U-251, 48 h): 5.12 µM | GI50 (HaCaT (keratinocytes); Homo sapiens): 31.6 µM | GI50 (OVCAR-3 (ovarian); Homo sapiens, OVCAR-3, 48 h): 5.91 µM | cytotoxic efficacy ([1]; OVCAR-3 and K-562 cell lines): did not demonstrate cytotoxic efficacy | GI50 [2, 5]: 8.46 µM | GI50 (PC-3 (prostate); Homo sapiens): 14 µM | TGI (PC-3 (prostate); 48 h): 84.67 mg/L (≈ 267 µM) | GI50 (786-0 (renal); Homo sapiens): 7.6 µM

O=C(N/N=C/c1ccc(O)cc1)c1cc(O)c(O)c(O)c1 [Compound 8, N'-(4-Hydroxybenzylidene)galloyl hydrazide]
GI50 (U251 (glioma, CNS); Homo sapiens, U-251, 48 h): 6.6 µM | TGI (U251 (glioma, CNS)): 26.07 mg/L (≈ 90.4 µM) | GI50 (HaCaT (keratinocytes); Homo sapiens): 8.72 µM | GI50 (OVCAR-3 (ovarian); Homo sapiens, OVCAR-3, 48 h): 1.35 µM | GI50 ([3]; Homo sapiens, NCI-H460, 48 h): 9.38 µM | GI50 (K-562 (leukemia); Homo sapiens, K562): 9.17 µM | GI50 (786-0 (renal); Homo sapiens): 26.8 µM

COc1cccc2c1C(=O)c1c(O)c3c(c(O)c1C2=O)C[C@@](O)(C(=O)CO)C[C@@H]3O[C@H]1C[C@H](N)[C@H](O)[C@H](C)O1 [Dox, Doxorubicin, reference compound]
GI50 (U251 (glioma, CNS); Homo sapiens, U-251, 48 h): 0.02 µM | TGI (U251 (glioma, CNS)): 2.68 mg/L (≈ 4.93 µM) | GI50 (HaCaT (keratinocytes); Homo sapiens): 0.01 µM | TGI (HaCaT (keratinocytes)): 0.77 mg/L (≈ 1.42 µM) | GI50 (MCF-7 (breast); Homo sapiens, MCF7): 0.01 µM | TGI (MCF-7 (breast); [4]): 2.52 mg/L | GI50 (OVCAR-3 (ovarian); Homo sapiens, OVCAR-3, 48 h): 0.02 µM | TGI (OVCAR-3 (ovarian)): 1.47 mg/L (≈ 2.7 µM) | TGI (HT-29 (colon)): 26.03 mg/L (≈ 47.9 µM) | GI50 (HT-29 (colon); Homo sapiens, HT-29, 48 h): 0.09 µM | GI50 [2, 5]: 0.2 µM | TGI [2, 6]: 22.42 mg/L | GI50 ([3]; Homo sapiens, NCI-H460, 48 h): 0.01 µM | TGI [3]: 3.73 mg/L (≈ 6.86 µM) | CC50 (K-562 (leukemia); Homo sapiens, K562, 48 h, read-out: LC50): 20.1 mg/L | GI50 (K-562 (leukemia); Homo sapiens, K562): 0.03 µM | TGI (K-562 (leukemia); [7]): 2.60 mg/L | CC50 (PC-3 (prostate); Homo sapiens, 48 h, read-out: LC50): 7.95 mg/L (≈ 14.6 µM) | GI50 (PC-3 (prostate); Homo sapiens): 0.18 µM | TGI (PC-3 (prostate); 48 h): 1.03 mg/L (≈ 1.9 µM) | TGI (786-0 (renal)): 0.51 mg/L (≈ 0.938 µM) | CC50 (786-0 (renal); Homo sapiens): 17.8 mg/L (≈ 32.8 µM) | GI50 (786-0 (renal); Homo sapiens): 0.04 µM

Galloyl-2-methylthio-1,3,4-oxadiazole [Compound 10]
LC50 (U251 (glioma, CNS)): (30.43) µg/mL | GI50 (U251 (glioma, CNS); U251, 48 h, SRB): 5.2 µM | TGI (U251 (glioma, CNS)): 16.40 mg/L | GI50 (HaCaT (keratinocytes)): 2.5 µM | TGI (HaCaT (keratinocytes)): 18.00 mg/L | CC50 (MCF-7 (breast)): 20.2 µM | LC50 (MCF-7 (breast)): (20.24) µg/mL | GI50 (MCF-7 (breast)): 0.34 µM | TGI (MCF-7 (breast); MCF-7, as printed in the text): 3.20 µM | TGI (MCF-7 (breast); [4]): 3.20 mg/L | CC50 (OVCAR-3 (ovarian)): 17.3 µM | LC50 (OVCAR-3 (ovarian)): (17.34) µg/mL | TGI (OVCAR-3 (ovarian)): 2.38 mg/L | LC50 (HT-29 (colon)): (60.32) µg/mL | GI50 (HT-29 (colon); HT-29, 48 h): 2.77 µM | TGI (HT-29 (colon)): 17.66 mg/L | CC50 [2]: 19.7 µM | LC50 [2]: (19.65) µg/mL | TGI ([2]; NCI/ADR-RES): 2.33 µM | GI50 ([2]; NCI/ADR-RES, 48 h): 0.17 µM | TGI [2, 6]: 2.33 mg/L | LC50 [3]: (65.78) µg/mL | GI50 ([3]; NCI-H460, 48 h): 9.44 µM | TGI [3]: 29.52 mg/L | CC50 (K-562 (leukemia)): 20.2 µM | LC50 (K-562 (leukemia)): (20.20) µg/mL | GI50 (K-562 (leukemia)): 0.6 µM | TGI (K-562 (leukemia); K-562, as printed in the text): 3.70 µM | TGI (K-562 (leukemia); [7]): 3.70 mg/L | LC50 (PC-3 (prostate)): (69.30) µg/mL | GI50 (PC-3 (prostate)): 7.43 µM | TGI (PC-3 (prostate); 48 h): 28.45 mg/L | GI50 (786-0 (renal)): 9.2 µM | TGI (786-0 (renal)): 29.40 mg/L
